Data from US20240376097A1, “BCL-2 Inhibitor” (BeiGene Ltd., priority 2020, published 2024).
pIC50: −log10 of the molar value.

Legend:
[1] = system: RS4;11 (BCL-2 dependent acute lymphoblastic leukemia cell line); assay: RS4;11 Cell Proliferation Assay; assay type: cell-based; details: Homo sapiens, RS4;11 cells, read-out: Cellular proliferation assay (IC50, nM) RS4
Summary of the method: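 Viability measured via CellTiter-Glo luminescence after a 48 h, 37 °C exposure to compounds (10 points, highest 1 μM). Seeding was 50,000 RS4;11 cells per well in 10% FBS RPMI-1640; IC50 given as mean.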

[2] = target: recombinant human Bcl-2 D103Y protein (Homo sapiens (Human), UniProt P10415, D103Y); assay: Bcl-2-D103Y Biochemical Assay (TR-FRET); assay type: binding; details: for pIC50: TR-FRET, FITC labeled Bak peptide; for Ratio of Bcl-2 D103Y/Bcl-2 WT: ratio of IC50
Summary of the method: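 Compounds titrated against the Bcl-2 D103Y–ligand interaction; inhibition derived from the TR-FRET emission ratio 490 nm/520 nm after 337 nm excitation. Four-parameter logistic fitting gave IC50.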

[3] = Metabolic Stability Study, liver microsome incubation (mouse); assay type: in vitro ADME; details: mouse liver microsomes 0.5 mg/mL, 1 μM compound, NADPH; for half-life at 1 μM: NA^# = very stable, beyond the detection limits, read-out: T1/2 (min) mouse; for microsomal CLint at 1 μM: read-out: CLint (μL × min^−1 × mg^−1) mouse
Summary of the method: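 Test compounds (1 μM) incubated at 37° C with 0.5 mg/mL liver microsomes plus NADPH regenerating system; samples quenched at 0, 30 and 60 min. Parent loss measured by LC-MS/MS, giving CLint and T1/2, with CLint normalised to microsomal protein concentration.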

[4] = Mouse PK Study; assay type: in vivo; details: plasma, male CD-1 mouse
Procedure: Biological Example: Mouse PK Study
The pharmacokinetics of compounds were evaluated in male CD-1 mouse via Intravenous (dose of 1 mg/kg) and Oral Administration (dose of 10 mg/kg). For intravenous administration study, test compounds were dissolved in DMSO/EtOH/Cremophor EL/D5W (2.5/10/20/67.5, by volume) and injected with a 1 mg/kg dose via tail vein. For oral administration study, test compounds were dissolved in PEG400/Phosal 50 PG/EtOH (30/60/10, by volume) and administrated to mice at 10 mg/kg by gavage. Blood was collected into EDTA-K2 anticoagulant tube at 5 (IV only). 15, and 30 min and 1, 2, 4, 8 and 24 h after administration. Approximately 30 μL blood was collected at each time point. And then the blood was centrifuged at 3000 g for 5 min at 4° C. using a centrifuge to obtain the plasma. The plasma sample was transferred into a tube and stored in a freezer at approximately −20° C. until the determination of concentration by LC-MS/MS. Pharmacokinetic parameter were estimated by using WinNonlin software (version 8.1, Pharsight Corporation, CA, USA) with non-compartmental method. The following pharmacokinetic parameters were calculated, whenever possible from the plasma concentration-time data: CL, Vd, T1/2, AUClast, AUCinf for IV administration and Tmax, Cmax, AUClast, AUCinf, T1/2 for PO administration. All animals are free fed before experiment. For comparison purpose, the PK results of certain compounds in previous disclosure were obtained using the same methods.

recombinant human Bcl-2 D103Y protein, sequence (P10415 whole entry D103Y): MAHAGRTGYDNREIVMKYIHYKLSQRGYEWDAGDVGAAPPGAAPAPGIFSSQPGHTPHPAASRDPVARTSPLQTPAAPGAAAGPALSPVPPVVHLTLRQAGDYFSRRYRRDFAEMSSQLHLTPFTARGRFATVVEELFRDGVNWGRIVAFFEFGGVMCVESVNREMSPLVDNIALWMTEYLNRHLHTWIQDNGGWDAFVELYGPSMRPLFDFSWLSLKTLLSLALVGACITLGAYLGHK

COc1cc(CN2CCN(C3CC4(C3)CN(c3ccc(C(=O)NS(=O)(=O)c5ccc(NC[C@H]6CC[C@](C)(O)CC6)c([N+](=O)[O-])c5)c(Oc5cnc6[nH]cc(F)c6c5)c3)C4)[C@H](c3ccccc3C(C)C)C2)cc2cc(C)oc12 [Example 338, 2-((3-fluoro-1H-pyrrolo[2,3-b]pyridin-5-yl)oxy)-N-((4-((((1r,4r)-4-hydroxy-4-methylcyclohexyl)methyl)amino)-3-nitrophenyl)sulfonyl)-4-(6-((R)-2-(2-isopropylphenyl)-4-((7-methoxy-2-methylbenzofuran-5-yl)methyl)piperazin-1-yl)-2-azaspiro[3.3]heptan-2-yl)benzamide]
IC50 [1]: 0.11 nM
pIC50 [2]: 9.00
Ratio of Bcl-2 D103Y/Bcl-2 WT [2]: 1.7
half-life at 1 μM [3]: 538 min
microsomal CLint at 1 μM [3]: 2.6 µL/min/mg
AUC(0-t) ([4]; Iv dosing (1 mg/kg)): 42900 ng·h/mL
Vd ([4]; Iv dosing (1 mg/kg)): 0.37 L/kg
clearance ([4]; Iv dosing (1 mg/kg)): 0.4 mL/min/kg
AUC(0-t) ([4]; Po dosing (10 mg/kg)): 11600 ng·h/mL
Cmax ([4]; Po dosing (10 mg/kg)): 699 ng/mL

COc1cc(CN2CCN(C3CC4(C3)CN(c3ccc(C(=O)NS(=O)(=O)c5ccc(NC[C@H]6CC[C@](C)(O)CC6)c([N+](=O)[O-])c5)c(Oc5cnc6[nH]ccc6c5)c3)C4)[C@H](c3ccccc3C(C)C)C2)ccc1C1CC1 [Example 233, 2-((1H-pyrrolo[2,3-b]pyridin-5-yl)oxy)-4-(6-((R)-4-(4-cyclopropyl-3-methoxybenzyl)-2-(2-isopropylphenyl)piperazin-1-yl)-2-azaspiro[3.3]heptan-2-yl)-N-((4-((((1r,4r)-4-hydroxy-4-methylcyclohexyl)methyl)amino)-3-nitrophenyl)sulfonyl)benzamide]
IC50 [1]: 0.13 nM
pIC50 [2]: 9.08
Ratio of Bcl-2 D103Y/Bcl-2 WT [2]: 1.9
half-life at 1 μM [3]: 253 min
microsomal CLint at 1 μM [3]: 5.5 µL/min/mg
AUC(0-t) ([4]; Iv dosing (1 mg/kg)): 17200 ng·h/mL
Vd ([4]; Iv dosing (1 mg/kg)): 0.8 L/kg
clearance ([4]; Iv dosing (1 mg/kg)): 1 mL/min/kg
AUC(0-t) ([4]; Po dosing (10 mg/kg)): 17400 ng·h/mL
Cmax ([4]; Po dosing (10 mg/kg)): 1100 ng/mL

COc1ccc(CN2CCN(C3CC4(CCN(c5ccc(C(=O)NS(=O)(=O)c6ccc(NCC7(F)CCOCC7)c([N+](=O)[O-])c6)c(Oc6cnc7[nH]ccc7c6)c5)CC4)C3)[C@H](c3ccccc3C(C)C)C2)cc1 (single isomer, unassigned) [Example 32, (R or S)-2-((1H-pyrrolo[2,3-b]pyridin-5-yl)oxy)-N-((4-(((4-fluorotetrahydro-2H-pyran-4-yl)methyl)amino)-3-nitrophenyl)sulfonyl)-4-(2-(2-(2-isopropylphenyl)-4-(4-methoxybenzyl)piperazin-1-yl)-7-azaspiro[3.5]nonan-7-yl)benzamide]
IC50 [1]: 0.18 nM
pIC50 [2]: 9.96
Ratio of Bcl-2 D103Y/Bcl-2 WT [2]: 1.1
half-life at 1 μM [3]: 202 min
microsomal CLint at 1 μM [3]: 6.8 µL/min/mg
AUC(0-t) ([4]; Iv dosing (1 mg/kg)): 10500 ng·h/mL
Vd ([4]; Iv dosing (1 mg/kg)): 0.48 L/kg
clearance ([4]; Iv dosing (1 mg/kg)): 1.5 mL/min/kg
AUC(0-t) ([4]; Po dosing (10 mg/kg)): 21200 ng·h/mL
Cmax ([4]; Po dosing (10 mg/kg)): 1440 ng/mL

COc1cc(CN2CCN(C3CC4(C3)CN(c3ccc(C(=O)NS(=O)(=O)c5ccc(NC[C@H]6CC[C@](C)(O)CC6)c([N+](=O)[O-])c5)c(Oc5cnc6[nH]cc(F)c6c5)c3)C4)[C@H](c3ccccc3C(C)C)C2)ccc1C1CC1 [Example 232, 4-(6-((R)-4-(4-cyclopropyl-3-methoxybenzyl)-2-(2-isopropylphenyl)piperazin-1-yl)-2-azaspiro[3.3]heptan-2-yl)-2-((3-fluoro-1H-pyrrolo[2,3-b]pyridin-5-yl)oxy)-N-((4-((((1r,4r)-4-hydroxy-4-methylcyclohexyl)methyl)amino)-3-nitrophenyl)sulfonyl)benzamide]
IC50 [1]: 0.13 nM
pIC50 [2]: 9.02
Ratio of Bcl-2 D103Y/Bcl-2 WT [2]: 1.6
half-life at 1 μM [3]: 206 min
microsomal CLint at 1 μM [3]: 6.7 µL/min/mg
AUC(0-t) ([4]; Iv dosing (1 mg/kg)): 14400 ng·h/mL
Vd ([4]; Iv dosing (1 mg/kg)): 1.2 L/kg
clearance ([4]; Iv dosing (1 mg/kg)): 1.2 mL/min/kg
AUC(0-t) ([4]; Po dosing (10 mg/kg)): 18300 ng·h/mL
Cmax ([4]; Po dosing (10 mg/kg)): 1090 ng/mL

COc1ccc(CN2CCN(C3CC4(CCN(c5ccc(C(=O)NS(=O)(=O)c6ccc(NC[C@H]7CC[C@](C)(O)CC7)c([N+](=O)[O-])c6)c(Oc6cnc7[nH]ccc7c6)c5)CC4)C3)[C@H](c3ccccc3C(C)C)C2)cc1 [Example 19a, 2-((1H-pyrrolo[2,3-b]pyridin-5-yl)oxy)-N-((4-((((1r,4r)-4-hydroxy-4-methylcyclohexyl)methyl)amino)-3-nitrophenyl)sulfonyl)-4-(2-((R)-2-(2-isopropylphenyl)-4-(4-methoxybenzyl)piperazin-1-yl)-7-azaspiro[3.5]nonan-7-yl)benzamide]
IC50 [1]: 0.15 nM
pIC50 [2]: 9.82
ratio of Bcl-2 D103Y/Bcl-2 wt, compared with F91b in WO2019210828 ([2]; comparison in words): significantly lower
Ratio of Bcl-2 D103Y/Bcl-2 WT [2]: 2.6
half-life at 1 μM [3]: 346 min
microsomal CLint at 1 μM [3]: 4 µL/min/mg
AUC(0-t) ([4]; Iv dosing (1 mg/kg)): 12300 ng·h/mL
Vd ([4]; Iv dosing (1 mg/kg)): 0.48 L/kg
clearance ([4]; Iv dosing (1 mg/kg)): 1.4 mL/min/kg
AUC(0-t) ([4]; Po dosing (10 mg/kg)): 20000 ng·h/mL
Cmax ([4]; Po dosing (10 mg/kg)): 1590 ng/mL

CC(C)c1ccccc1[C@@H]1CN(Cc2ccc(F)c(F)c2)CCN1C1CC2(CCN(c3ccc(C(=O)NS(=O)(=O)c4ccc(NC[C@H]5CC[C@](C)(O)CC5)c([N+](=O)[O-])c4)c(Oc4cnc5[nH]ccc5c4)c3)CC2)C1 (single isomer, unassigned) [Example 52a, 2-((1H-pyrrolo[2,3-b]pyridin-5-yl)oxy)-4-(2-((R or S)-4-(3,4-difluorobenzyl)-2-(2-isopropylphenyl)piperazin-1-yl)-7-azaspiro[3.5]nonan-7-yl)-N-((4-((((1r,4r)-4-hydroxy-4-methylcyclohexyl)methyl)amino)-3-nitrophenyl)sulfonyl)benzamide]
IC50 [1]: 0.25 nM
pIC50 [2]: 9.43
Ratio of Bcl-2 D103Y/Bcl-2 WT [2]: 2.4
AUC(0-t) ([4]; Iv dosing (1 mg/kg)): 6510 ng·h/mL
Vd ([4]; Iv dosing (1 mg/kg)): 0.62 L/kg
clearance ([4]; Iv dosing (1 mg/kg)): 2.6 mL/min/kg
AUC(0-t) ([4]; Po dosing (10 mg/kg)): 20700 ng·h/mL
Cmax ([4]; Po dosing (10 mg/kg)): 2140 ng/mL
